Source: US7049313B2, “ATM inhibitors” (Kudos Pharmaceuticals Ltd., priority 2002, dated 2006)

What follows are compounds tested against T1, ATM (Homo sapiens, UniProt Q13315) (assay: In vitro ATM inhibition assay (phosphorylation of GSTp53N66 on serine 15)).
T1 construct: ATM protein was immunoprecipitated from HeLa cell nuclear extract; endogenous in cells; host or cells: HeLa cell nuclear extract (immunoprecipitate)
Format: biochemical
Description: In vitro ATM inhibition Assays
In order to assess the inhibitory action of the compounds against ATM in vitro, the following assay was used to determine IC50 values.
ATM protein was immunoprecipitated from HeLa cell nuclear extract using rabbit polyclonal anti-sera raised to the C-terminal ˜500 amino-acid residues of the human ATM protein. The immunoprecipitation was performed according to the methodology described by Banin, S. et al. (1998). 10 μl of immunoprecipitated ATM in Buffer C (50 mM Hepes, pH 7.4, 6 mM MgCl2, 150 mM NaCl, 0.1 mM sodium orthovanadate, 4 mM MnCl2, 0.1 mM dithiothreitol, 10% glycerol) was added to 32.5 μl of buffer C containing 1 μg of the ATM substrate GSTp53N66 in a V-bottomed 96 well polypropylene plate. The GSTp53N66 substrate is the amino terminal 66 amino acid residues of human wild type p53 fused to glutathione S-transferase. ATM phosphorylates p53 on the residue serine 15 (Banin, S. et al. (1998)). Varying concentrations of inhibitor were then added. […] After 10 minutes of incubation at 37° C., the reactions were initiated by the addition of 5 μl of 500 μM Na-ATP. After 1 hour with shaking at 37° C., 150 μl of phosphate buffered saline (PBS) was added to the reaction and the plate centrifuged at 1500 rpm for 10 minutes. 5 μl of the reaction was then transferred to a 96 well opaque white plate containing 45 μl of PBS to allow the GSTp53N66 substrate to bind to the plate wells. The plate was covered and incubated at room temperature for 1 hour with shaking before discarding the contents. The plate wells were washed twice by the addition of PBS prior to the addition of 3% (w/v) bovine serum albumin (BSA) in PBS. The plate was incubated at room temperature for 1 hour with shaking before discarding the contents and washing twice with PBS. To the wells, 50 μl of a 1:10,000 dilution of primary phosphoserine-15 antibody (Cell Signaling Technology, #9284L) in 3% BSA/PBS was added to detect the phosphorylation event on the serine 15 residue of p53 elicited by the ATM kinase. After 1 hour of incubation at room temperature with shaking, the wells were washed four times with PBS prior to the addition of an anti-rabbit HRP conjugated secondary antibody (Pierce, 31462) with shaking for 1 hour at room temperature. The wells were then washed four times with PBS before the addition of chemiluminescence reagent (NEN Renaissance, NEL105). The plate was then shaken briefly, covered with a transparent plate seal and transferred to a TopCount NXT for chemiluminescent counting. Counts per second, following a one second counting time, were recorded for each reaction.
The enzyme activity for each compound is then calculated using the following equation: […]

T1 sequence (Q13315 whole entry): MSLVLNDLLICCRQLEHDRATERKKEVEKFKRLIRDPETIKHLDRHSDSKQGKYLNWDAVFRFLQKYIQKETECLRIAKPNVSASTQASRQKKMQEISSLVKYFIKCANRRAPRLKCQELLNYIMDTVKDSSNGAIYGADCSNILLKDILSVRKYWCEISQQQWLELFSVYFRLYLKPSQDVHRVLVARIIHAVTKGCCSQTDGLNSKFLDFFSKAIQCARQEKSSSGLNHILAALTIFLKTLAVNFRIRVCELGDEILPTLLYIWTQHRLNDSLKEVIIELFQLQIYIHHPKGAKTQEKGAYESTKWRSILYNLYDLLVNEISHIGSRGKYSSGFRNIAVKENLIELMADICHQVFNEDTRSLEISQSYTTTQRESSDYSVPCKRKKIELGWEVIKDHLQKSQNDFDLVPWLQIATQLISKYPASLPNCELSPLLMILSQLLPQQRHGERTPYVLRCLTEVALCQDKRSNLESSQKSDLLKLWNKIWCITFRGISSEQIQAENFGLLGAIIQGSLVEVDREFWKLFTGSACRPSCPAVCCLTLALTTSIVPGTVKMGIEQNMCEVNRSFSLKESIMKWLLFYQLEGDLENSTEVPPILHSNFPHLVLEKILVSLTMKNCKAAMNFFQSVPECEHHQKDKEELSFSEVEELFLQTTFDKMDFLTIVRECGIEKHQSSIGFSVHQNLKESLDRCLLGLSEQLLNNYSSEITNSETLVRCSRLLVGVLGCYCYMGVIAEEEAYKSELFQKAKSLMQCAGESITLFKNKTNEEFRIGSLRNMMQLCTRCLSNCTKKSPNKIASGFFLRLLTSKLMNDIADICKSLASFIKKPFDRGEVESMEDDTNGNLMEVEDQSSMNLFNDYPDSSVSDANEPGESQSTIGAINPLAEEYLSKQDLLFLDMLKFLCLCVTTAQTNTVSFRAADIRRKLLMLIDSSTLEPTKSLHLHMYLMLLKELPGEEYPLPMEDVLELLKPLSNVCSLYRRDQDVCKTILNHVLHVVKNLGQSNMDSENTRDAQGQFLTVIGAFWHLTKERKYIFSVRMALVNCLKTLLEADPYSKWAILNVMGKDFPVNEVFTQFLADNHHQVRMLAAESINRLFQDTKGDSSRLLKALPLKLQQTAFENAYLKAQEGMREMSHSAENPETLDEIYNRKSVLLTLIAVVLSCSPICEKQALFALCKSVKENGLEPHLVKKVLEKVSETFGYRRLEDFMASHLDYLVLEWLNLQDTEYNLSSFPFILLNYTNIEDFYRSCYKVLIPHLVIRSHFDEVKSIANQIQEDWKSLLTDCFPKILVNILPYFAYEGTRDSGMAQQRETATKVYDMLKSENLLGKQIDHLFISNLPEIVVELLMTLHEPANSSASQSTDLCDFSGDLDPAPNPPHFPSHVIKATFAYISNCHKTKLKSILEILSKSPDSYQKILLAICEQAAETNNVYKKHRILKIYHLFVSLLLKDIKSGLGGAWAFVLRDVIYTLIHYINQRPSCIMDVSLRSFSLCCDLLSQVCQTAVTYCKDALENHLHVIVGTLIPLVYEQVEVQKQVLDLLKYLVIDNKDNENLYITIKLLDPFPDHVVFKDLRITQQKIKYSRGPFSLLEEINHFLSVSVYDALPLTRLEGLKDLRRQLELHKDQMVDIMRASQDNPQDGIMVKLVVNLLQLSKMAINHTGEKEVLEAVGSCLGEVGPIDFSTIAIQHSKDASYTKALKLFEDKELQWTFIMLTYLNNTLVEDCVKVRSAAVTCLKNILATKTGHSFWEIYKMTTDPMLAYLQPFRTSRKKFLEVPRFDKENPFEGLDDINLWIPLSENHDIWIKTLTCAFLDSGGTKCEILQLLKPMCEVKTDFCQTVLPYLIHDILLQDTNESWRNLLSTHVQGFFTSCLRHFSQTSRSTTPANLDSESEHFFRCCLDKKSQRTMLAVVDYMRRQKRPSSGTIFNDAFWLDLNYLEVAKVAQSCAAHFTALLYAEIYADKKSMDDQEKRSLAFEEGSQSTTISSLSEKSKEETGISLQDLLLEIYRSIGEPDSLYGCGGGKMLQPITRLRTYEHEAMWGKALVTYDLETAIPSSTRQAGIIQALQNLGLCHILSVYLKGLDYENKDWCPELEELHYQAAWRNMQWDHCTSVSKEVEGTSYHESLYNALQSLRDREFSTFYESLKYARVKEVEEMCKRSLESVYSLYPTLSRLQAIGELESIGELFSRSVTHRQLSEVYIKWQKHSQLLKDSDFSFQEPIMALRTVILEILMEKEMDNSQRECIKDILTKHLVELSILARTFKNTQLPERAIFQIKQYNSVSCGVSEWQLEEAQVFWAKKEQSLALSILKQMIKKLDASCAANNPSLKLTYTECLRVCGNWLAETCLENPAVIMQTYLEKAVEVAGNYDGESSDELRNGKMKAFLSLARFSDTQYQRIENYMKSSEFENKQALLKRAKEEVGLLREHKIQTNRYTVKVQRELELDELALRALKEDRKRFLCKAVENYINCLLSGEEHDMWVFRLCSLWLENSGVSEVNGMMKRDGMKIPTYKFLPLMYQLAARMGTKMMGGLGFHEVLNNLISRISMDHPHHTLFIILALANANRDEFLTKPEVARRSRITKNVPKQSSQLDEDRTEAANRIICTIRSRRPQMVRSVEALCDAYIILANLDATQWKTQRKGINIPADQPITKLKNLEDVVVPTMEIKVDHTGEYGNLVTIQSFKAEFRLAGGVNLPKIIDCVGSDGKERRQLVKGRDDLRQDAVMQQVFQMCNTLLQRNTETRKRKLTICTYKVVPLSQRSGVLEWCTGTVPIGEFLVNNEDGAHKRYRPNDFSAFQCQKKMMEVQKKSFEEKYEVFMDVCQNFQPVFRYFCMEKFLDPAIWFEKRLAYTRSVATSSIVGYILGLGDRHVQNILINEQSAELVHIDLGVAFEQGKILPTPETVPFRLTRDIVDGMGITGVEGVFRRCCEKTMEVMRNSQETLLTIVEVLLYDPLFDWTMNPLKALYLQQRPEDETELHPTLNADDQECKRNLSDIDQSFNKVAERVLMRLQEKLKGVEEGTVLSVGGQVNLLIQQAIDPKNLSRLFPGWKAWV

IC50, < 200 nM:
CC(=O)OCC(=O)Nc1ccc2c(c1)Cc1cccc(-c3cc(=O)cc(N4CCOCC4)o3)c1S2 [Compound 40]
O=C(NCCc1cnc[nH]1)c1ccc2c(c1)Sc1cccc(-c3cc(=O)cc(N4CCOCC4)o3)c1S2 [Compound 176]
O=C(NC1CCC1)c1ccc2c(c1)Sc1cccc(-c3cc(=O)cc(N4CCOCC4)o3)c1S2 [Compound 153]
COC(=O)C(=O)Nc1ccc(-c2cc(=O)cc(N3CCOCC3)o2)c2c1Cc1ccccc1S2 [Compound 116]
O=C(NCC1CC1)c1ccc2c(c1)Sc1cccc(-c3cc(=O)cc(N4CCOCC4)o3)c1S2 [Compound 152]
CC(C)(C)OC(=O)Nc1ccc2c(c1)Cc1cccc(-c3cc(=O)cc(N4CCOCC4)o3)c1S2 [Compound 19, [5-(6-Morpholin-4-yl-4-oxo-4H-pyran-2-yl)-9H-thioxanthen-2-yl]-carbamic acid tert-butyl ester]
O=C(Nc1ccc(-c2cc(=O)cc(N3CCOCC3)o2)c2c1Cc1ccccc1S2)c1ccc2nsnc2c1 [Compound 112]
O=C(CCNCCO)Nc1ccc2c(c1)Cc1cccc(-c3cc(=O)cc(N4CCOCC4)o3)c1S2 [Compound 74]
Cc1ccoc1C(=O)Nc1ccc(-c2cc(=O)cc(N3CCOCC3)o2)c2c1Cc1ccccc1S2 [Compound 129]
CNC(=O)c1ccc2c(c1)Sc1cccc(-c3cc(=O)cc(N4CCOCC4)o3)c1S2 [Compound 139]
O=C(NCc1ccco1)c1ccc2c(c1)Sc1cccc(-c3cc(=O)cc(N4CCOCC4)o3)c1S2 [Compound 150]
CCNC(=O)c1ccc2c(c1)Sc1cccc(-c3cc(=O)cc(N4CCOCC4)o3)c1S2 [Compound 142]
O=C(Nc1ccc2c(c1)Cc1cccc(-c3cc(=O)cc(N4CCOCC4)o3)c1S2)c1ccc2c(c1)CCO2 [Compound 43]
O=C(Nc1ccc(-c2cc(=O)cc(N3CCOCC3)o2)c2c1Cc1ccccc1S2)c1ccc(-c2ccccn2)s1 [Compound 110]
O=C(NNC(=O)c1ccc2c(c1)Sc1cccc(-c3cc(=O)cc(N4CCOCC4)o3)c1S2)c1ccccc1 [Compound 162]
O=C(NCCN1CCCC1)c1ccc2c(c1)Sc1cccc(-c3cc(=O)cc(N4CCOCC4)o3)c1S2 [Compound 167]
O=C(NCc1ccncc1)c1ccc2c(c1)Sc1cccc(-c3cc(=O)cc(N4CCOCC4)o3)c1S2 [Compound 172]
O=C(O)C(F)(F)C(F)(F)C(=O)Nc1ccc2c(c1)Cc1cccc(-c3cc(=O)cc(N4CCOCC4)o3)c1S2 [Compound 50]
O=C(Nc1ccc2c(c1)Cc1cccc(-c3cc(=O)cc(N4CCOCC4)o3)c1S2)c1csc(-c2cccs2)n1 [Compound 46]
O=C(c1ccc2c(c1)Sc1cccc(-c3cc(=O)cc(N4CCOCC4)o3)c1S2)N1CCCC1 [Compound 156]
O=c1cc(-c2cccc3c2Sc2ccccc2CC3)oc(N2CCOCC2)c1 [Compound 133, 2-(10,11-Dihydro-dibenzo[b,f]thiepin-4-yl)-6-morpholin-4-yl-pyran-4-one]
O=C(CCN1CCCCCC1)Nc1ccc2c(c1)Cc1cccc(-c3cc(=O)cc(N4CCOCC4)o3)c1S2 [Compound 79]
O=C(NCC1CCCO1)c1ccc2c(c1)Sc1cccc(-c3cc(=O)cc(N4CCOCC4)o3)c1S2 (stereo not drawn) [Compound 149]
Cc1cc(C(=O)Nc2ccc3c(c2)Cc2cccc(-c4cc(=O)cc(N5CCOCC5)o4)c2S3)no1 [Compound 45]
O=C(Nc1ccc2c(c1)Cc1cccc(-c3cc(=O)cc(N4CCOCC4)o3)c1S2)c1cccnc1 [Compound 26]
O=C(NCc1cccnc1)c1ccc2c(c1)Sc1cccc(-c3cc(=O)cc(N4CCOCC4)o3)c1S2 [Compound 171]
O=C(Nc1ccc(-c2cc(=O)cc(N3CCOCC3)o2)c2c1Cc1ccccc1S2)c1ccco1 [Compound 107]
C[C@@H]1CN(C(=O)c2ccc3c(c2)Sc2cccc(-c4cc(=O)cc(N5CCOCC5)o4)c2S3)C[C@H](C)O1 [Compound 159]
CC(=O)Oc1ccccc1C(=O)Nc1ccc(-c2cc(=O)cc(N3CCOCC3)o2)c2c1Cc1ccccc1S2 [Compound 109]
Cn1nc(O)cc1C(=O)Nc1ccc2c(c1)Cc1cccc(-c3cc(=O)cc(N4CCOCC4)o3)c1S2 [Compound 35]
Nc1ccc2c(c1)Cc1cccc(-c3cc(=O)cc(N4CCOCC4)o3)c1S2 [Compound 20, 2-(7-Amino-9H-thioxanthen-4-yl)-6-morpholin-4-yl-pyran-4-one]
O=C(Nc1ccc(-c2cc(=O)cc(N3CCOCC3)o2)c2c1Cc1ccccc1S2)c1ccc[nH]1 [Compound 128]
O=C(Nc1ccc2c(c1)Cc1cccc(-c3cc(=O)cc(N4CCOCC4)o3)c1S2)c1cc(F)cc2c1OCOC2 [Compound 44]
CC(=O)Oc1ccccc1C(=O)Nc1ccc2c(c1)Cc1cccc(-c3cc(=O)cc(N4CCOCC4)o3)c1S2 [Compound 37]
O=C(CN1CCCCC1)Nc1ccc2c(c1)Cc1cccc(-c3cc(=O)cc(N4CCOCC4)o3)c1S2 [Compound 51]
CC(=O)OC(C(=O)Nc1ccc2c(c1)Cc1cccc(-c3cc(=O)cc(N4CCOCC4)o3)c1S2)c1ccccc1 (stereo not drawn) [Compound 41]
O=C(NCC1CCCCC1)c1ccc2c(c1)Sc1cccc(-c3cc(=O)cc(N4CCOCC4)o3)c1S2 [Compound 154]
O=C(CNCC1CCCO1)Nc1ccc2c(c1)Cc1cccc(-c3cc(=O)cc(N4CCOCC4)o3)c1S2 (stereo not drawn) [Compound 68]
O=C(NCCCN1CCOCC1)c1ccc2c(c1)Sc1cccc(-c3cc(=O)cc(N4CCOCC4)o3)c1S2 [Compound 178]
O=c1cc(-c2cccc3c2Oc2ccccc2S3)oc(N2CCOCC2)c1 [Compound 5, 2-Phenoxathiin-4-yl-6-morpholin-4-yl-pyran-4-one]
O=C(CNCCCN1CCOCC1)Nc1ccc2c(c1)Cc1cccc(-c3cc(=O)cc(N4CCOCC4)o3)c1S2 [Compound 62]
NCCNCCC(=O)Nc1ccc2c(c1)Cc1cccc(-c3cc(=O)cc(N4CCOCC4)o3)c1S2 [Compound 75]
O=c1cc(-c2ccc(OCCSc3ncn[nH]3)c3c2Cc2ccccc2S3)oc(N2CCOCC2)c1 [Compound 102]
COc1ccccc1C(=O)Nc1ccc2c(c1)Cc1cccc(-c3cc(=O)cc(N4CCOCC4)o3)c1S2 [Compound 29]
O=C(c1ccc2c(c1)Sc1cccc(-c3cc(=O)cc(N4CCOCC4)o3)c1S2)N1CCCCC1 [Compound 157]
O=C(NCc1ccccn1)c1ccc2c(c1)Sc1cccc(-c3cc(=O)cc(N4CCOCC4)o3)c1S2 [Compound 170]
CC(C)(C)OC(=O)N1CCN(CCNC(=O)c2ccc3c(c2)Sc2cccc(-c4cc(=O)cc(N5CCOCC5)o4)c2S3)CC1 [Compound 180]
O=C(NCCN1CCOCC1)c1ccc2c(c1)Sc1cccc(-c3cc(=O)cc(N4CCOCC4)o3)c1S2 [Compound 177]
COCC(=O)Nc1ccc2c(c1)Cc1cccc(-c3cc(=O)cc(N4CCOCC4)o3)c1S2 [Compound 22]
CC(=O)Oc1cccc(C(=O)Nc2ccc(-c3cc(=O)cc(N4CCOCC4)o3)c3c2Cc2ccccc2S3)c1C [Compound 123]
COCCN(CCOC)CC(=O)Nc1ccc2c(c1)Cc1cccc(-c3cc(=O)cc(N4CCOCC4)o3)c1S2 [Compound 55]
O=C(NCCN1CCCCC1)c1ccc2c(c1)Sc1cccc(-c3cc(=O)cc(N4CCOCC4)o3)c1S2 [Compound 166]
CCCNC(=O)c1ccc2c(c1)Sc1cccc(-c3cc(=O)cc(N4CCOCC4)o3)c1S2 [Compound 144]
O=c1cc(-c2ccc(NS(=O)(=O)Cc3ccccc3)c3c2Sc2ccccc2C3)oc(N2CCOCC2)c1 [Compound 130]
O=C(Nc1ccc2c(c1)Cc1cccc(-c3cc(=O)cc(N4CCOCC4)o3)c1S2)c1ccco1 [Compound 27]
O=C(CN(CCO)CCO)Nc1ccc2c(c1)Cc1cccc(-c3cc(=O)cc(N4CCOCC4)o3)c1S2 [Compound 54]
CN1CCN(CC(=O)Nc2ccc3c(c2)Cc2cccc(-c4cc(=O)cc(N5CCOCC5)o4)c2S3)CC1 [Compound 53]
